From ChEMBL document CHEMBL1201862, “PubChem BioAssay data set” (2004)
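Where inhibition never reached the appropriate level, the endpoint shown equals the highest concentration tested. Otherwise, values were interpolated linearly from a five-concentration, 48-hour dose response in 96-well plates. Abbreviation: GI50, concentration required for 50% inhibition of growth.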 Active and inactive are the calls of the source. Cut-off read from the data, not from the text of the source: active = GI50 up to about 1.1 µM and inactive = higher.

Key:
Assay in all cases: NCI tumour cell line growth inhibition, 48 h
HOP-92 = test system: HOP-92
MDA-MB-231 = test system: MDA-MB-231
HOP-62 = test system: HOP-62
MCF7 = test system: MCF7
MDA-MB-435 = test system: MDA-MB-435
KM12 = test system: KM12
HT-29 = test system: HT-29
T47D = test system: T47D
DU-145 = test system: DU-145
SK-MEL-5 = test system: SK-MEL-5
SF-539 = test system: SF-539
MDA-N = test system: MDA-N
NCI/ADR-RES = test system: NCI/ADR-RES
A549 = test system: A549
LOX IMVI = test system: LOX IMVI
SF-268 = test system: SF-268
OVCAR-4 = test system: OVCAR-4
HCC 2998 = test system: HCC 2998
M14 = test system: M14
SNB-75 = test system: SNB-75
HCT-116 = test system: HCT-116
786-0 = test system: 786-0
COLO 205 = test system: COLO 205
ACHN = test system: ACHN
NCI-H460 = test system: NCI-H460
SK-MEL-2 = test system: SK-MEL-2
OVCAR-5 = test system: OVCAR-5
CCRF-CEM = test system: CCRF-CEM
K562 = test system: K562
HL-60 = test system: HL-60
OVCAR-3 = test system: OVCAR-3
EKVX = test system: EKVX
SK-OV-3 = test system: SK-OV-3
SW-620 = test system: SW-620
IGROV-1 = test system: IGROV-1
UACC-62 = test system: UACC-62
A498 = test system: A498
U-251 = test system: U-251
UACC-257 = test system: UACC-257
RPMI-8226 = test system: RPMI-8226
BT-549 = test system: BT-549
Hs-578T = test system: Hs-578T
SK-MEL-28 = test system: SK-MEL-28
SF-295 = test system: SF-295
MOLT-4 = test system: MOLT-4
TK-10 = test system: TK-10
HCT-15 = test system: HCT-15
SR = test system: SR
OVCAR-8 = test system: OVCAR-8
PC-3 = test system: PC-3
SN12C = test system: SN12C
UO-31 = test system: UO-31
CAKI-1 = test system: CAKI-1
SNB-19 = test system: SNB-19
RXF 393 = test system: RXF 393
NCI-H226 = test system: NCI-H226
NCI-H23 = test system: NCI-H23
Malme-3M = test system: Malme-3M

Measured: GI50

CN1c2ccc(Cl)cc2C(=O)NC1c1ccc([N+](=O)[O-])s1 (centres undefined)
12.7 µM: HCT-15
inactive: HOP-92 14.5 µM | MDA-MB-231 16.2 µM | HOP-62 18.5 µM | MCF7 19.6 µM | MDA-MB-435 16.3 µM | KM12 16.4 µM | HT-29 18.9 µM | T47D 15 µM | DU-145 19.3 µM | SK-MEL-5 16.1 µM | SF-539 18.1 µM | MDA-N 16.2 µM | NCI/ADR-RES 15.3 µM | A549 23.5 µM | LOX IMVI 14.5 µM | SF-268 3.75 µM | OVCAR-4 20.4 µM | HCC 2998 16.1 µM | M14 15.6 µM | SNB-75 12 µM | HCT-116 15.2 µM | 786-0 16.6 µM | COLO 205 21.5 µM | ACHN 19.4 µM | NCI-H460 16.1 µM | SK-MEL-2 16.4 µM | OVCAR-5 20.2 µM | CCRF-CEM 39.5 µM | K562 13.3 µM | HL-60 19.6 µM | OVCAR-3 15.5 µM | EKVX 21.5 µM | SK-OV-3 20.2 µM | SW-620 32.7 µM | IGROV-1 15.4 µM | UACC-62 11.4 µM | A498 14.8 µM | U-251 16.4 µM | UACC-257 15.1 µM | RPMI-8226 6.19 µM | BT-549 14.1 µM | Hs-578T 17.3 µM | SK-MEL-28 18.7 µM | SF-295 21.6 µM | MOLT-4 10.4 µM | TK-10 20.2 µM | SR 14.6 µM | OVCAR-8 15.8 µM | PC-3 16 µM | SN12C 16.6 µM | UO-31 12.1 µM | CAKI-1 15.1 µM | SNB-19 30.1 µM | RXF 393 11.6 µM

CCOC(=O)C1(C(=O)OCC)CCCN1C(=O)[C@H](CNC(=O)OC(C)(C)C)NC(=O)OCc1ccccc1
inactive: MDA-MB-231 > 100 µM | HOP-62 > 100 µM | MCF7 > 100 µM | MDA-MB-435 > 100 µM | KM12 > 100 µM | HT-29 > 100 µM | T47D > 100 µM | DU-145 > 100 µM | SK-MEL-5 > 100 µM | SF-539 > 100 µM | MDA-N > 100 µM | NCI/ADR-RES > 100 µM | A549 > 100 µM | LOX IMVI > 100 µM | SF-268 > 100 µM | OVCAR-4 > 100 µM | HCC 2998 67.6 µM | M14 > 100 µM | SNB-75 79.6 µM | NCI-H226 > 100 µM | HCT-116 > 100 µM | 786-0 > 100 µM | COLO 205 > 100 µM | ACHN > 100 µM | NCI-H460 > 100 µM | SK-MEL-2 > 100 µM | OVCAR-5 > 100 µM | CCRF-CEM 17.4 µM | K562 32.8 µM | OVCAR-3 > 100 µM | EKVX > 100 µM | SK-OV-3 > 100 µM | SW-620 > 100 µM | IGROV-1 > 100 µM | NCI-H23 > 100 µM | U-251 > 100 µM | UACC-257 > 100 µM | RPMI-8226 31.3 µM | BT-549 > 100 µM | Hs-578T > 100 µM | SK-MEL-28 > 100 µM | SF-295 > 100 µM | MOLT-4 27.8 µM | TK-10 > 100 µM | SR 51.6 µM | PC-3 > 100 µM | SN12C > 100 µM | UO-31 > 100 µM | CAKI-1 > 100 µM | SNB-19 > 100 µM | RXF 393 > 100 µM
> 100 µM: HCT-15

C/C(=N/NC(=O)c1ccccc1Nc1ccccc1C(=O)N/N=C(\C)c1ccc(C)cc1)c1ccc(C)cc1
inactive: HOP-92 > 100 µM | MDA-MB-231 79.1 µM | HOP-62 11.4 µM | MCF7 14.6 µM | MDA-MB-435 > 100 µM | KM12 74.8 µM | HT-29 > 100 µM | T47D > 100 µM | DU-145 > 100 µM | SK-MEL-5 42.1 µM | MDA-N > 100 µM | NCI/ADR-RES > 100 µM | A549 46.3 µM | SF-268 > 100 µM | OVCAR-4 32.1 µM | HCC 2998 10.9 µM | M14 47 µM | SNB-75 > 100 µM | NCI-H226 > 100 µM | HCT-116 53.3 µM | 786-0 > 100 µM | COLO 205 83.6 µM | ACHN 23.9 µM | NCI-H460 15.5 µM | SK-MEL-2 > 100 µM | OVCAR-5 > 100 µM | CCRF-CEM 25.2 µM | K562 57.4 µM | HL-60 > 100 µM | OVCAR-3 4.62 µM | EKVX > 100 µM | Malme-3M 32.5 µM | SK-OV-3 > 100 µM | SW-620 > 100 µM | IGROV-1 > 100 µM | UACC-62 31.8 µM | A498 > 100 µM | NCI-H23 > 100 µM | U-251 > 100 µM | UACC-257 > 100 µM | RPMI-8226 > 100 µM | BT-549 > 100 µM | Hs-578T > 100 µM | SK-MEL-28 > 100 µM | SF-295 22.9 µM | MOLT-4 37.8 µM | TK-10 18.6 µM | SR > 100 µM | OVCAR-8 > 100 µM | PC-3 41.7 µM | SN12C > 100 µM | UO-31 > 100 µM | CAKI-1 > 100 µM | SNB-19 > 100 µM | RXF 393 12.2 µM
55 µM: HCT-15

COc1ccc2nc(N/N=C/c3sccc3C)cc(C)c2c1
active: MDA-MB-231 0.406 µM
14.1 µM: HCT-15
inactive: HOP-92 6.07 µM | HOP-62 16.4 µM | MCF7 22.5 µM | MDA-MB-435 14.1 µM | KM12 22.5 µM | HT-29 8.67 µM | T47D 42.9 µM | DU-145 19.4 µM | SK-MEL-5 12.9 µM | MDA-N 16.5 µM | NCI/ADR-RES 21.6 µM | A549 20.5 µM | LOX IMVI 15.6 µM | SF-268 16.5 µM | OVCAR-4 21.4 µM | HCC 2998 17.5 µM | M14 11.9 µM | SNB-75 15 µM | NCI-H226 18.8 µM | HCT-116 11.6 µM | 786-0 14.4 µM | COLO 205 13.6 µM | ACHN 16.3 µM | NCI-H460 13.2 µM | SK-MEL-2 21.6 µM | OVCAR-5 23.2 µM | CCRF-CEM 19.5 µM | K562 38 µM | HL-60 18.3 µM | OVCAR-3 18.8 µM | EKVX 18.2 µM | Malme-3M 17.5 µM | SK-OV-3 13.2 µM | SW-620 20.8 µM | IGROV-1 15.1 µM | UACC-62 13.1 µM | A498 12.2 µM | NCI-H23 10.1 µM | U-251 15.4 µM | UACC-257 17 µM | RPMI-8226 9.38 µM | BT-549 15.6 µM | Hs-578T 18.6 µM | SK-MEL-28 18.1 µM | SF-295 7.23 µM | MOLT-4 18.7 µM | TK-10 12 µM | OVCAR-8 37.8 µM | PC-3 17.1 µM | SN12C 19.4 µM | UO-31 15.1 µM | CAKI-1 > 100 µM | SNB-19 29 µM | RXF 393 19.1 µM

ClC1(Cl)C(c2ccccc2)C1c1ccccc1 (centres undefined)
21.6 µM: HCT-15
inactive: MDA-MB-231 54.2 µM | HOP-62 23.2 µM | MCF7 56 µM | MDA-MB-435 7.35 µM | KM12 21.4 µM | T47D 34.6 µM | DU-145 42.2 µM | MDA-N 5.32 µM | NCI/ADR-RES 7.16 µM | A549 23 µM | LOX IMVI 28.2 µM | SF-268 32.4 µM | OVCAR-4 44.6 µM | HCC 2998 11.1 µM | M14 27.7 µM | SNB-75 46 µM | NCI-H226 14.6 µM | HCT-116 23.9 µM | 786-0 28.5 µM | COLO 205 36 µM | ACHN 25.6 µM | NCI-H460 13.2 µM | SK-MEL-2 13.8 µM | OVCAR-5 43.6 µM | K562 9.68 µM | OVCAR-3 21.1 µM | EKVX 18.3 µM | SK-OV-3 18.8 µM | SW-620 22.2 µM | UACC-62 29.5 µM | A498 38.8 µM | NCI-H23 24.6 µM | U-251 41.3 µM | UACC-257 30.7 µM | RPMI-8226 24.4 µM | BT-549 33.4 µM | Hs-578T 20.7 µM | SK-MEL-28 41.7 µM | SF-295 17.8 µM | MOLT-4 26.7 µM | TK-10 54 µM | SR 7.64 µM | OVCAR-8 21.2 µM | PC-3 62.2 µM | SN12C 39.4 µM | UO-31 26.9 µM | CAKI-1 30 µM | SNB-19 25.9 µM | RXF 393 14.4 µM
